System: HEK-Blue TGFβ cell
Assay: HEK-Blue TGFβ cellular reporter gene assay (SEAP readout)
Type: cell-based
Conditions: HEK-Blue TGFβ cells stimulated with TGF-β, 22-23 h incubation, SEAP read at 630 nm
Method: HEK-Blue TGFβ Cellular Reporter Gene Assay:
HEK-Blue TGFβ cell was purchased from Invivogen. Cell suspension of 2.5×10^5 cells/ml was prepared using Test Medium (DMEM containing 0.5% v/v heat-inactivated FBS). TGF-β working solution (6 ng/ml) was obtained through diluting TGF-β stock solution (10 μg/ml) by Test Medium before use. Eight different concentrations of all compounds were obtained by 3× gradient dilution method using TGF-β working solution. Add 100 μl of Test Medium (Vehicle) or test article or TGF-β working solution per well of a flat-bottom 96-well plate. Add 100 μl of HEK-Blue TGF-β cell suspension per well. Incubate the plate at 37° C. in a CO2 incubator for 22-23 h. Add 150 μl of resuspended QUANTI-Blue per well of a new flat-bottom 96-well plate. Add 30 μl of induced HEK-Blue TGF-β cells supernatant. Avoid pipetting at the bottom of wells. Incubate the plate at 37° C. incubator for 30-40 min. Determine secreted embryonic alkaline phosphatase (SEAP) levels using a spectrophotometer at 630 nm.
The inhibition was calculated using the equation: […]

Compound | IC50
Cc1cc(Oc2ccnc(Nc3ccc(Cc4nnnn4CC(=O)O)cc3)c2)c(-c2ccccn2)nc1C [Example 35B] | > 10000 nM
c1ccc(-c2nn(C3CC3)cc2Oc2ccnc(Nc3cccc(Cc4nn[nH]n4)c3)c2)cc1 [Example 198] | 110 nM
CCn1cc(Oc2ccnc(Nc3cccc(C(C)(C)C(=O)O)c3)c2)c(-c2ccccc2)n1 [Example 122] | 29 nM
Cc1ccc(CCc2nnn[nH]2)cc1Nc1cc(Oc2cc(C)c(C)nc2-c2ccccn2)ccn1 [Example 30] | 110 nM
Cc1cc(Oc2ccnc(Nc3cccc(OCc4nnn[nH]4)c3)c2)c(-c2ccccn2)nc1C [Example 33] | 7310 nM
Cc1ccc(Oc2ccnc(Nc3cncc(CCC(=O)O)c3)c2)c(C)n1 [Example 38] | > 10000 nM
Cc1ccc(Oc2ccnc(Nc3cccc(CCc4nn[nH]n4)c3F)c2)c(C)n1 [Example 46] | 520 nM
CC(C)(C(=O)O)c1cccc(Nc2cc(Oc3cn(C(F)F)nc3-c3ccccc3)ccn2)c1 [Example 121] | 78 nM
Cc1cc(Nc2cc(Oc3cn(C4CC4)nc3-c3ccccc3)ccn2)cc(C(C)(C)C(=O)O)c1 [Example 169] | 7 nM
Cc1ccc(Oc2ccnc(Nc3cccc(CCC(=O)O)c3)c2)c(-c2ccccc2)n1 [Example 66, 3-(3-((4-((6-methyl-2-phenylpyridin-3-yl)oxy)pyridin-2-yl)amino)phenyl)propanoic acid] | 24 nM
CC(C)(C(=O)O)c1cccc(Nc2cc(Oc3cn(C4CCC4)nc3C3CCOCC3)ccn2)c1 [Example 118] | 310 nM
Cc1ccc(Oc2ccnc(Nc3cccc(CCc4nn[nH]n4)c3)c2)c(C2CCOCC2)n1 [Example 191] | 3690 nM
CCc1ccc(Oc2ccnc(Nc3cc(C)cc(CCC(=O)O)c3)c2)c(C)n1 [Example 147] | 25 nM
CCc1nc(C)c(Oc2ccnc(Nc3cc(C)cc(CCc4nn[nH]n4)c3)c2)cc1C [Example 190] | 6 nM
Cc1cc(CC(C)(C)C(=O)O)cc(Nc2cc(Oc3cn(C4CC4)nc3-c3ccccc3)ccn2)c1 [Example 170] | 14 nM
Cc1cc(Oc2ccnc(Nc3cccc(CCC(=O)O)c3F)c2)c(-c2ccccn2)nc1C [Example 10] | 220 nM
CCc1ccc(Oc2ccnc(Nc3cc(C)cc(CC(C)(C)C(=O)O)c3)c2)c(C)n1 [Example 145] | 33 nM
Cc1ccc(Oc2ccnc(Nc3cccc(C(C)(C)C(=O)O)c3)c2)c(-c2ccc(Cl)cc2)n1 [Example 79] | 180 nM
Cc1cc(Oc2ccnc(Nc3cccc(Cc4nnnn4CC(=O)O)c3)c2)c(-c2ccccn2)nc1C [Example 34B, 2-(5-(3-((4-((5,6-dimethyl-[2,2′-bipyridin]-3-yl)oxy)pyridin-2-yl)amino)benzyl)-1H-tetrazol-1-yl)acetic acid] | > 10000 nM
CCc1ccc(Oc2ccnc(Nc3cccc(CCc4nn[nH]n4)c3)c2)c(C)n1 [Example 57] | 130 nM
COc1cccc(-c2nc(C)ccc2Oc2ccnc(Nc3cccc(C(C)(C)C(=O)O)c3)c2)c1 [Example 87] | 94 nM
CC(C)(C(=O)O)c1cccc(Nc2cc(Oc3cn(C4CC4)nc3C3CCC3)ccn2)c1 [Example 129] | 29 nM
CC(C)(C(=O)O)c1cccc(Nc2cc(Oc3ccc(C4CC4)nc3-c3ccccc3)ccn2)c1 [Example 105] | 130 nM

Compound | IC50
c1ccc(-c2nn(C3CCC3)cc2Oc2ccnc(Nc3cccc(Cc4nn[nH]n4)c3)c2)cc1 [Example 201] | 89 nM
CCc1nc(C)ccc1Oc1ccnc(Nc2cccc(CCc3nn[nH]n3)c2)c1 [Example 56] | 160 nM
Cc1ccc(Oc2ccnc(Nc3ccc(Cl)c(CCC(=O)O)c3)c2)c(C)n1 [Example 41] | 100 nM
Cc1cc(Oc2ccnc(Nc3ccc(C(F)(F)F)c(CCc4nn[nH]n4)c3)c2)c(-c2ccccn2)nc1C [Example 22] | 230 nM
Cc1cc(Oc2ccnc(Nc3cc(CCc4nnn[nH]4)ccc3F)c2)c(-c2ccccn2)nc1C [Example 19] | 160 nM
Cc1cc(Oc2ccnc(Nc3cccc(CCc4nn[nH]n4)c3)c2)c(C)nc1C [Example 188] | 73 nM
CCc1nc(C)c(Oc2ccnc(Nc3cc(C)cc(CCc4nn[nH]n4)c3)c2)cc1Cl [Example 186] | 51 nM
Cc1ccc(Nc2cc(Oc3cc(C)c(C)nc3-c3ccccn3)ccn2)cc1C(C)(C)C(=O)O [Example 136] | 100 nM
c1ccc(-c2nn(C3CC3)cc2Oc2ccnc(Nc3cccc(CCc4nn[nH]n4)c3)c2)cc1 [Example 197] | 35 nM
CCc1nc(C)c(Oc2ccnc(Nc3cccc(CC(C)(C)C(=O)O)c3)c2)cc1Cl [Example 155] | 30 nM
Cc1nc(-c2ccccn2)c(Oc2ccnc(Nc3cccc(CCc4nn[nH]n4)c3)c2)cc1C(C)C [Example 183] | 240 nM
Cc1cc(Oc2ccnc(Nc3cnn(CCc4nn[nH]n4)c3)c2)c(-c2ccccn2)nc1C [Example 31] | > 10000 nM
O=C(O)Cc1cccc(Nc2cc(Oc3cn(C4CC4)nc3C3CCOCC3)ccn2)c1 [Example 163] | 3600 nM
Cc1cc(Nc2cc(Oc3ccc(C)nc3-c3ccccc3)ccn2)cc(C(C)(C)C(=O)O)c1 [Example 142] | 7 nM
Cc1cc(Nc2cc(Oc3cn(C4CC4)nc3C3CCOCC3)ccn2)cc(C(=O)O)c1 [Example 112] | 1670 nM
Cc1ccc(Oc2ccnc(Nc3cccc(CC(C)(C)c4nn[nH]n4)c3)c2)c(-c2ccccc2)n1 [Example 192] | 65 nM
Cc1cc(Nc2cc(Oc3cc(C)c(C)nc3C3CCOCC3)ccn2)cc(C(C)(C)C(=O)O)c1 [Example 143] | 130 nM
CC(C)(c1cccc(Nc2cc(Oc3cn(C4CC4)nc3C3CCOCC3)ccn2)c1)c1nn[nH]n1 [Example 195] | 2230 nM
Cc1cc(CC(C)(C)C(=O)O)cc(Nc2cc(Oc3cc(Cl)c(C)nc3C)ccn2)c1 [Example 158] | 37 nM
Cc1ccc(Oc2ccnc(Nc3cccc(C(C)(C)C(=O)O)c3)c2)c(-c2ccccc2C#N)n1 [Example 95] | 290 nM
Cc1ccc(Oc2ccnc(Nc3cccc(CC(C)(C)C(=O)O)c3)c2)c(-c2ccccc2)n1 [Example 140] | 35 nM
Cc1ccc(Oc2ccnc(Nc3cncc(CCc4nn[nH]n4)c3)c2)c(C)n1 [Example 49] | > 10000 nM
Cc1ccc(Oc2ccnc(Nc3cccc(C(C)(C)C(=O)O)c3)c2)c(-c2ccccc2C)n1 [Example 92] | 80 nM

Compound | IC50
Cc1cc(Oc2ccnc(Nc3ccnc(CCC(=O)O)c3)c2)c(-c2ccccn2)nc1C [Example 9] | > 10000 nM
Cc1cc(Oc2ccnc(Nc3cccc(CCc4nnn[nH]4)c3C)c2)c(-c2ccccn2)nc1C [Example 27] | 250 nM
CCCc1ccc(Oc2ccnc(Nc3cccc(C(C)(C)C(=O)O)c3)c2)c(-c2ccccc2)n1 [Example 106] | 120 nM
O=C(O)CCc1cc(Nc2cc(Oc3cn(C4CC4)nc3C3CCOCC3)ccn2)ccn1 [Example 69] | > 10000 nM
Cc1cc(Oc2ccnc(Nc3cncc(CCC(=O)O)c3)c2)c(-c2ccccn2)nc1C [Example 3] | > 10000 nM
CCc1ccc(Oc2ccnc(Nc3cc(C)cc(CCc4nn[nH]n4)c3)c2)c(C)n1 [Example 187] | 27 nM
COc1ccc(Nc2cc(Oc3cc(C)c(C)nc3-c3ccccn3)ccn2)cc1CCc1nn[nH]n1 [Example 177] | 150 nM
CCc1nc(C)c(Oc2ccnc(Nc3cccc(CCC(=O)O)c3)c2)cc1C [Example 149] | 21 nM
Cc1ccc(Oc2ccnc(Nc3cccc(C(C)(C)C(=O)O)c3)c2)c(-c2cccc(C#N)c2)n1 [Example 96] | 190 nM
CCc1nc(C)c(Oc2ccnc(Nc3cc(C)cc(C(C)(C)C(=O)O)c3)c2)cc1C [Example 148] | 34 nM
Cc1cc(Cc2nn[nH]n2)cc(Nc2cc(Oc3cn(C4CC4)nc3-c3ccccc3)ccn2)c1 [Example 199] | 60 nM
Cc1cc(Nc2cc(Oc3cc(Cl)c(C)nc3C)ccn2)cc(C(C)(C)C(=O)O)c1 [Example 157] | 27 nM
Cc1ccc(Oc2ccnc(Nc3cccc(C(F)(F)C(=O)O)c3)c2)c(-c2ccccc2)n1 [Example 131, 2,2-difluoro-2-(3-((4-((6-methyl-2-phenylpyridin-3-yl)oxy)pyridin-2-yl)amino)phenyl)acetic acid] | 1730 nM
Cc1cc(Nc2cc(Oc3cn(C4CC4)nc3C3CCOCC3)ccn2)cc(C(C)(C)c2nn[nH]n2)c1 [Example 196] | 270 nM
Cc1ccc(Oc2ccnc(Nc3cccc(CCc4nn[nH]n4)c3)c2)c(-c2cccnc2)n1 [Example 53] | 2950 nM
Cc1ccc(Oc2ccnc(Nc3cc(CCc4nn[nH]n4)ccc3F)c2)c(C)n1 [Example 45] | 420 nM
c1cc(CCc2nn[nH]n2)cc(Nc2cc(Oc3cn(C4CC4)nc3C3CCOCC3)ccn2)c1 [Example 67, N-(3-(2-(2H-tetrazol-5-yl)ethyl)phenyl)-4-((1-cyclopropyl-3-(tetrahydro-2H-pyran-4-yl)-1H-pyrazol-4-yl)oxy)pyridin-2-amine] | 2650 nM
CCc1cc(Oc2ccnc(Nc3cccc(CCc4nn[nH]n4)c3)c2)c(-c2ccccn2)nc1C [Example 181] | 210 nM
Cc1ccc(Oc2ccnc(Nc3cccc(C(C)(C)CC(=O)O)c3)c2)c(-c2ccccc2)n1 [Example 110] | 30 nM
Cc1nc(-c2ccccc2)c(Oc2ccnc(Nc3cccc(C(C)(C)C(=O)O)c3)c2)cc1C(C)C [Example 102] | 2710 nM
Cc1ccc(Oc2ccnc(Nc3cc(CCc4nn[nH]n4)ccn3)c2)c(C)n1 [Example 48] | 3030 nM
Cc1ccc(Oc2ccnc(Nc3cccc(C(C)(C)C(=O)O)c3)c2)c(-c2ccccc2F)n1 [Example 89] | 27 nM

— patent US20220054465A1, “(PYRIDIN-2-YL)AMINE DERIVATIVES AS TGF-BETA R1 (ALK5) INHIBITORS FOR THE TREATMENT OF CANCER” (Nexys Therapeutics, Inc., priority 2018, published 2022)
